# Reference: patent publication US20250127689A1, “METHOD OF STIMULATING DENTIN FORMATION WITH HYDROXY-SUBSTITUTED AZOBENZENE MATERIALS” (The Regents of the University of Colorado, a body corporate, priority 2022, published 2025)
# What was measured:
# [1] = system: exposed dental pulp of maxillary first molar; test: Pulp exposure (class I cavity) in maxillary first molar, H&E histology of sections four weeks after treatment; assay type: in vivo, C57BL/6J mice; conditions: mice
# Description: (§1) In order to test this hypothesis, a class I cavity extending into the dentin and almost to the pulp was prepared on the occlusal surface of the maxillary first molar after anesthesia in five to six week old C57BL/6J mice. The cavity was prepared using a 0.3-0.5 millimeter diameter carbide bur. An endodontic hand file with a tip diameter of 0.06-0.10 millimeter was used to create a mechanical break in the thin dentin overlying the dental pulp, thereby creating a cavity that included exposed dentin and exposed pulp.
# (§2) For the control group of mice, after hemostasis, a one-step, dual-cure, self-etching bonding agent (SCOTCHBOND™ Universal Adhesive; 3M ESPE, St. Paul, Minnesota, USA) was applied to exposed dentin according to the manufacturer's instructions and cured for 20-40 seconds using a dental curing light operated at 420-480 nanometers and 1200-2000 milliwatts/centimeter^2. ProRoot™ MTA (Mineral Trioxide Aggregate) root canal repair material (Dentsply Sirona, Tulsa Dental Specialties, Johnson City, Tennessee, USA) was prepared according to manufacturer's instructions by mixing powder and liquid components in equal proportions to form a dough. The dough was packed over the exposed pulp according to manufacturer's instructions. The cavity was then sealed with FILTEK™ Supreme Ultra Universal Restorative (3M ESPE, St. Paul, Minnesota, USA), which was applied to the cured adhesive and the root canal repair material, then cured for 20-40 seconds using a dental curing light operated at 420-480 nanometers and 1200-2000 milliwatts/centimeter^2.
# For the test group of mice, after hemostasis, a one-step, dual-cure, self-etching bonding agent (SCOTCHBOND™ Universal Adhesive; 3M ESPE, St. Paul, Minnesota, USA) was applied to exposed dentin according to the manufacturer's instructions and cured for 20-40 seconds using a dental curing light operated at 420-480 nanometers and 1200-2000 milliwatts/centimeter^2. Prior to being applied, the AHA solution was divided into two parts of equal volume to mix in the photoinitiators and the redox (self-cure) initiator components. […]
# [2] = system: exposed dental pulp of maxillary first molar; test: Pulp exposure (class I cavity) in maxillary first molar, microCT of maxilla six weeks after treatment; assay type: in vivo, C57BL/6J mice; conditions: mice, six weeks after dental procedure; longitudinal section, cured restorative removed before imaging
# Description: as §1
# as §2, with “The cavity was then sealed with FILTEK™ Supreme Ultra Universal Restorative (3M ESPE, St. Paul, Minnesota, USA), which was applied to the cured adhesive and the root canal repair material, then cured for 20-40 seconds using a dental curing light operated at 420-480 nanometers and 1200-2000 milliwatts/centimeter^2.” left out
compound,measurement,setting,value
"C=CC(=O)Oc1ccccc1N=Nc1ccccc1O [AHA, 2-Acryloyloxy-2′-hydroxy-azobenzene]","appearance of gingiva around the site of application (inflammation, dysplasia)",[1],healthy without any signs of inflammation or dysplasia
same,formation of dentinal bridge at the site of pulp exposure (H&E stained sections),"[1]; 2.5 to 12.5 micrograms AHA per restoration applied to exposed pulp, light-cured under FILTEK restorative",closed by formation of a dentinal bridge generated by reparative dentin formation
same,"state of dental pulp by microscopy (vitality, inflammation, dysplastic changes)",[1]; H&E sections,vital pulp without any evidence of chronic or acute inflammation or dysplastic changes
same,formation of a calcified dentinal bridge at the pulp exposure site (microCT),[2],pulp exposure site closed by a calcified dentinal bridge
